Reference: article PMC5506883 (Heliyon, 2017)

Experiments:
xanthine oxidase = details: ref Sheu and Chiang, 1997; cited from earlier work
[1] = molecular target: Horse butyrylcholinesterase (EC 3.1.1.8) (Equus caballus, UniProt P81908); experiment: Anticholinesterase assay; assay type: biochemical; details: Butyrylcholinesterase inhibition activity IC50 μM ± SEM, mean of three experiments with SEM; 15 min at 25 °C, pH 8.0
Sequence of Horse butyrylcholinesterase (EC 3.1.1.8) (P81908 whole entry): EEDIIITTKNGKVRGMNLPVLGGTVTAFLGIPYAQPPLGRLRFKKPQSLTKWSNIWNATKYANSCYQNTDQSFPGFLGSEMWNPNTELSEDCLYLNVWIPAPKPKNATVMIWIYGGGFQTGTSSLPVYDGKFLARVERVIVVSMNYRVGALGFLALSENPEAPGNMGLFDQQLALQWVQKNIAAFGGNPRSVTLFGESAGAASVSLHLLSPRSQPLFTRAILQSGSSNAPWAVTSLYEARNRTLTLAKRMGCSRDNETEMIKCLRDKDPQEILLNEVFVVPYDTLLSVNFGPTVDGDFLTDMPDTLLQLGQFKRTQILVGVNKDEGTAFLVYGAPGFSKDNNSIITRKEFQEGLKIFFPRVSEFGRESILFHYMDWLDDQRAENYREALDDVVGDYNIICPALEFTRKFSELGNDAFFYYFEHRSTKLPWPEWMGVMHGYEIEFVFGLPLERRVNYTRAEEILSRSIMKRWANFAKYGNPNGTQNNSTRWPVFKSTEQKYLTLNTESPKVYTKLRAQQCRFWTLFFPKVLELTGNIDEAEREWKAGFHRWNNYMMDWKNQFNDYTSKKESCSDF

Which results are given for `Oc1ccc2c(O)c3ccccc3cc2c1O` [Compound 1, anthracene-1,2,10-triol]?
xanthine oxidase inhibitory activity at concentration (xanthine oxidase): 68.35 µM; IC50 [1]: 89.3 ± 0.21 µM
